PubChem BioAssay AID1259427 (Fisher Drug Discovery Resource Center, 2018)
The source made the active and inactive calls.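 The calls were made as follows: active = EC50 at or below a set limit, with no effect in the paired counter-screen assay; inactive = the rest.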

These molecules were tested against Aedes aegypti neuropeptide Y-like receptor 7 (NPYLR7) (assay: NPYLR7 activation potency in cells – cell-based, Aedes aegypti, hit validation, mosquito biting behavior, confirmation (AID 1259427;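 also: potency of agonists that activate the receptor and raise the calcium signal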)). Conditions: HEK293T NPYLR7/Galpha15/GCaMP6s, calcium fluorescence.

For `C[C@@H](NC(=O)CN1Cc2ccc(N3CCOCC3)nc2C1=O)c1ccccc1`, which EC50 is on record?
The EC50 was > 20 µM (inactive).

Which EC50 does the source give for `Cc1cccc(C2=N/C(=C\c3cc4cc5c6c(c4oc3=O)CCCN6CCC5)C(=O)O2)c1` here?
The EC50 was “inactive”.

`CCC(CO)[n+]1c(C)cc(C=C2Sc3ccccc3N2CC)cc1C` (stereo not given) was tested. Which EC50 did it give?
Its EC50 is “inactive”.

For `Cc1cccc(N2C(=O)NC(=O)/C(=C/c3cn(C)c4ccccc34)C2=O)c1`, which EC50 is on record?
Its EC50 is > 20 µM (inactive).

Which EC50 does the source give for `COc1cc(/C=C2\SC(=S)N(c3cccc(C(=O)O)c3)C2=O)ccc1O` here?
Its EC50 is > 20 µM (inactive).

For `CC1C(=O)N(c2cccc(F)c2)CCN1C(=O)C1CC1` (stereo not given), which EC50 is on record?
Its EC50 is > 20 µM (inactive).

For `O=C(O)c1csc(CSc2nnc(Cc3ccccc3)n2-c2cccc(C(F)(F)F)c2)n1`, which EC50 is on record?
The EC50 was > 20 µM (inactive).

`CCN(CC)c1ccc(/C=C2/SC(=S)N(CC(=O)O)C2=O)cc1` was tested. Which EC50 did it give?
The EC50 was “inactive”.

With `CCCc1[nH]n(-c2ccc(Cl)c(Cl)c2)c(=O)c1/C=C1\NC(=O)N(Cc2ccc(C)cc2)C1=O` as the molecule, how does the EC50 read?
Its EC50 is > 20 µM (inactive).

With `O=C1/C(=C/c2cccc(F)c2)Oc2c1ccc(O)c2CN1CCN(CCO)CC1` as the molecule, how does the EC50 read?
Its EC50 is > 20 µM (inactive).

How did the EC50 turn out when `O=C(O)CN1C(=O)/C(=C/c2cc(Br)c(O)c(Br)c2)SC1=S` was run?
Its EC50 is “inactive”.

With `Nc1nc(Cl)nc2c1ncn2[C@@H]1O[C@H](CO)[C@@H](O)[C@H]1O` as the molecule, how does the EC50 read?
Its EC50 is “inactive”.

With `N#Cc1cccc(C(=O)N2CCN(C(c3ccccc3)c3ccc(Br)cc3)CC2)c1` (stereo not given) as the molecule, how does the EC50 read?
The EC50 was > 20 µM (inactive).

Which EC50 does the source give for `N#C/C(=C\c1ccc(O)c(O)c1)C(=O)NCc1ccccc1` here?
The EC50 was > 20 µM (inactive).

For `O=C(Cc1ccc2c(c1)CCC2)NCC1CCN(c2ccccc2)C1` (stereo not given), which EC50 is on record?
Its EC50 is > 20 µM (inactive).

Which EC50 does the source give for `N#CC(C#N)=C1C=C2C=C(N3CCN(Cc4ccccc4)CC3)CCC2CC1` (stereo not given) here?
The EC50 was > 20 µM (inactive).

Which EC50 does the source give for `N#CC(C#N)=C1C=C2C=C(N3CCCCCC3)CCC2CC1` (stereo not given) here?
Its EC50 is < 0.039 µM (inactive).

For `CCn1c(O)c(C=Nc2c(C#N)c(C)c(C)n2C2CCCCC2)c(=O)n(CC)c1=S`, which EC50 is on record?
Its EC50 is “inactive”.

`CN1C(=S)N(c2ccc3c(c2)CCC3)C(=O)/C1=C\c1ccncc1` was tested. Which EC50 did it give?
Its EC50 is > 20 µM (inactive).

How did the EC50 turn out when `O=C(O)c1[nH]ncc1CN1CCc2onc(-c3ccc(C(F)(F)F)cc3)c2C1` was run?
The EC50 was > 20 µM (inactive).

For `Cc1ccc(C2=NN(C(=O)CN3CCN(C)CC3)C(c3ccccc3Cl)C2)cc1` (stereo not given), which EC50 is on record?
The EC50 was > 20 µM (inactive).

With `CCn1c(=O)c2c(nc(/C=C/c3ccc(OC)c(OC)c3)n2C)n(CC)c1=O` as the molecule, how does the EC50 read?
Its EC50 is > 20 µM (inactive).

For `CCCc1ccccc1N1C(=O)CSC1c1ccc(NC(=O)CCl)cc1` (stereo not given), which EC50 is on record?
Its EC50 is > 20 µM (inactive).

With `CCN1C(=Cc2cc(C)[n+](C3CCCCC3)c(C)c2)Sc2ccccc21` as the molecule, how does the EC50 read?
Its EC50 is > 20 µM (inactive).

For `CC(C)c1nc(NC(=O)c2[nH]ncc2Br)n(C)n1`, which EC50 is on record?
Its EC50 is “inactive”.

`O=C1c2cccc3c(NCC(O)CCl)ccc(c23)C(=O)N1c1ccccc1` (stereo not given) was tested. Which EC50 did it give?
Its EC50 is < 0.039 µM (inactive).

For `O=C1SC(Nc2ccc(Br)cc2)C(=O)N1c1ccccc1` (stereo not given), which EC50 is on record?
The EC50 was > 20 µM (inactive).

`Cc1ccc(Cl)c(Oc2cc(N3CCN(C(=O)c4ccc(Cl)c(Cl)c4)CC3)ncn2)c1` was tested. Which EC50 did it give?
The EC50 was > 20 µM (inactive).

`CCOc1cccc(C=C2Oc3cc(O)ccc3C2=O)c1OC` was tested. Which EC50 did it give?
The EC50 was > 20 µM (inactive).

With `O=C1/C(=C/c2cc3ccccc3o2)Oc2cc(O)ccc21` as the molecule, how does the EC50 read?
The EC50 was > 20 µM (inactive).

For `N#C/C(=C/c1ccc(N2CCCCCC2)o1)c1ccc(F)cc1`, which EC50 is on record?
Its EC50 is > 20 µM (inactive).

`CC1CCCCC1OCCNC(=O)C1(c2ccc(F)cc2)CCC1` (stereo not given) was tested. Which EC50 did it give?
The EC50 was > 20 µM (inactive).

For `CCCCCn1c(=O)c2c(nc3n2CCN3c2cc(C)cc(C)c2)n(C)c1=O`, which EC50 is on record?
Its EC50 is > 20 µM (inactive).

`COc1ccc(CC2c3cc(OC)c(OC)cc3CC[N+]2(C)CCC(=O)OCCCCCOC(=O)CC[N+]2(C)CCc3cc(OC)c(OC)cc3C2Cc2ccc(OC)c(OC)c2)cc1OC` (stereo not given) was tested. Which EC50 did it give?
The EC50 was 3.55 µM.

Which EC50 does the source give for `O=C1c2cccc3c(NCCO)ccc(c23)C(=O)N1CCO` here?
The EC50 was < 0.039 µM (inactive).

How did the EC50 turn out when `O=C1NC(c2ccc3c(c2)OCO3)C(C(=O)c2ccccc2)C(O)(C(F)(F)F)N1` (stereo not given) was run?
Its EC50 is > 20 µM (inactive).

Which EC50 does the source give for `C[C@H](O)C(=O)C1=Nc2c(nc(N)[nH]c2=O)NC1` here?
The EC50 was > 20 µM (inactive).

With `COc1ccc(N2C(=O)/C(=C\c3ccc[nH]3)N(C)C2=S)c([N+](=O)[O-])c1` as the molecule, how does the EC50 read?
Its EC50 is > 20 µM (inactive).

Which EC50 does the source give for `N#Cc1cc(C(=O)c2cc(Cl)cc(Cl)c2O)cn(-c2nccs2)c1=O` here?
Its EC50 is 14.4 µM.

How did the EC50 turn out when `CN(Cc1ccccc1)C1=CC2=CC(=C(C#N)C#N)CCC2CC1` (stereo not given) was run?
The EC50 was 5.13 µM.

For `COCCCNCc1c(-c2ccc(F)cc2)noc1N1CCOCC1`, which EC50 is on record?
Its EC50 is > 20 µM (inactive).

For `O=C(COc1ccccc1)N1CCCC(CNS(=O)(=O)c2cccs2)C1` (stereo not given), which EC50 is on record?
Its EC50 is 13.2 µM.

For `CN1C(=S)N(CCCN2CCOCC2)C(=O)/C1=C/c1ccc(N(C)C)cc1`, which EC50 is on record?
The EC50 was > 20 µM (inactive).

Which EC50 does the source give for `O=C1C(=Cc2ccc(OC(F)F)cc2OC(F)F)Oc2cc(O)ccc21` here?
The EC50 was > 20 µM (inactive).

With `CC(C)(C)c1cnc(CSc2cnc(NC(=O)C3CCNCC3)s2)o1` as the molecule, how does the EC50 read?
The EC50 was 14.9 µM.

With `COC(=O)C1CCN(S(=O)(=O)c2c(F)cc(F)cc2Br)CC1` as the molecule, how does the EC50 read?
Its EC50 is > 20 µM (inactive).

Which EC50 does the source give for `O=C(Nc1cccc(-c2nnco2)c1)C1CCCCC1` here?
Its EC50 is > 20 µM (inactive).

`N#CC(=Cc1c(F)c(F)c(F)c(F)c1F)c1ccccn1` was tested. Which EC50 did it give?
The EC50 was > 20 µM (inactive).

Which EC50 does the source give for `CCOC(=O)C1=C(O)/C(=C\c2ccc(N(C)C)cc2)SC1=Nc1ccc(OC)cc1OC` here?
Its EC50 is > 20 µM (inactive).

How did the EC50 turn out when `CCN1CCN(C2=CC3=CC(=C(C#N)C#N)CCC3CC2)CC1` (stereo not given) was run?
Its EC50 is < 0.039 µM (inactive).

For `O=C(c1nccc2ccccc12)N1CCN(CC2CCCC2)CC1`, which EC50 is on record?
Its EC50 is > 20 µM (inactive).

How did the EC50 turn out when `CC(C)OC(=O)C(C(=O)C(F)(F)F)c1cc(NS(=O)(=O)c2ccc(Cl)cc2)ccc1O` (stereo not given) was run?
The EC50 was > 20 µM (inactive).

Which EC50 does the source give for `N#CC(C#N)=C1C=C2C=C(N3CCc4ccccc4C3)CCC2CC1` (stereo not given) here?
Its EC50 is > 20 µM (inactive).

With `CN(Cc1cnc2ccccc2n1)C(=O)C1CC2(CCNCC2)CN1` (stereo not given) as the molecule, how does the EC50 read?
The EC50 was > 20 µM (inactive).

For `COC(=O)c1cnc(/C=C/c2cc(C)c(O)c(C)c2)s1`, which EC50 is on record?
Its EC50 is > 20 µM (inactive).

How did the EC50 turn out when `CCCN1CCc2c(sc3c2c(NC(CC)CO)nc2nnnn23)C1` (stereo not given) was run?
The EC50 was > 20 µM (inactive).

With `CCOC(=O)C1CCCN(CC(=O)N2N=C(c3ccccc3Cl)CC2c2ccc(Cl)cc2)C1` (stereo not given) as the molecule, how does the EC50 read?
Its EC50 is > 20 µM (inactive).

`COc1ccc(NC(=O)C2C=CCN2)cc1NC(=O)c1ccco1` (stereo not given) was tested. Which EC50 did it give?
The EC50 was > 20 µM (inactive).

How did the EC50 turn out when `COc1ccc(CN2CCN(Cc3cccn3-c3ncccn3)CC2CCO)c(C)c1C` (stereo not given) was run?
Its EC50 is > 20 µM (inactive).

How did the EC50 turn out when `CCOc1ccc(/C=C2N=C(/C=C/c3ccccc3)OC/2=O)cc1` was run?
Its EC50 is > 20 µM (inactive).
